7 molecules from publication PMC6747051, “Screening of Antiviral Components of Ma Huang Tang and Investigation on the Ephedra Alkaloids Efficacy on Influenza Virus Type A” (Frontiers in Pharmacology, 2019) can be followed below.

One data set relates to MDCK cells. Conditions: dog.
Data set [1] has as its system influenza A virus. The data set is described as follows: microbe, parasite or virus in culture. Conditions: MDCK, 48 h, read-out: Cell survival rate.
Data set [2] relates to influenza A virus. The following applies: for cell viability rate: dog.
In data set [3] the test system is TLR4, TLR7, MyD88 and NF-κB p65 protein expression. More on the design: species or system ICR mice. Conditions: mouse, in vivo.
Data set [4] deals with influenza A virus (A PR/8/34). As to the kind of experiment: Spleen and thymus indexes of infected mice. The data set is classed as in vivo, ICR mice. As for the experimental part:
(§1) A total of 108 ICR mice were randomly divided into the control uninfected group, the control infected group, oseltamivir group, LEP-treated groups and DPEP-treated groups; 12 mice were designed in each group. Except for the mice in the control uninfected group, others were anaesthetized with ethyl ether and intranasally infected with 10LD50 influenza A virus (A PR/8/34) in a volume of 50 μl PBS to induce viral pneumonia. […] Meanwhile, the control uninfected group and the control infected group were only given saline with the same volume. […] The adult daily dose was converted into the high dose of mice, which was about 40 mg/kg. Based on the high dose of the drug, the medium and low doses were set.
(§2) In the 3rd and 7th days after infection, to monitor the histological changes in influenza A virus-infected animals, six mice were sacrificed randomly in each group, and lung, spleen and thymus tissues were obtained and weighed after being washed with saline solution. Lung index and the inhibition ratio of the lung index were calculated as our previous report, while spleen and thymus indexes were calculated based on the following formulas ([Ling et al., 2017]).
Spleen index = (spleen weight/body weight)×100%;
Thymus index = (thymus weight/body weight)×100%;

The subject of data set [5] is influenza A virus (A PR/8/34). The data set is described as follows: Lung index of influenza A virus-infected mice. The data set is classed as in vivo, ICR mice. As for the experimental part:
as §1, §2

Data set [6] has as its system IL-1β, IL-6 and IL-10 in serum. The data set is classed as in vivo, ICR mice. Conditions: 3rd and 7th day after infection. As for the experimental part:
as §1
In days 3 and 7 post-infection, blood samples of six mice from each group were collected from retroorbital sinus under mild ethyl ether anesthesia before they were sacrificed, then under 4 °C they were centrifuged at 3000 rpm for 20 min to obtain serum. The levels of IL-1β, IL-6 and IL-10 in murine serum were determined by ELISA kits.

For data set [7], the system named is IL-6, IFN-β and TNF-α levels. The data set is classed as cell-based, canine.
The test system of data set [8] is influenza A virus. As to the kind of experiment: Viral load assay using real-time RT-PCR (M1 gene) and CPE in infected MDCK cells. The data set is classed as cell-based, influenza virus A/PR8/34 (H1N1). Conditions: for virus load vs oseltamivir group: LMEP 31.25 μg/ml, LEP […], DPEP […]. For orientation: In qPCR the cycle at which signal appears reflects the starting amount.

The test system of data set [9] is influenza A virus. The data set is described as follows: Antiviral activity assay in vitro with four ways of drug delivery (MTT, MDCK cells). The data set is classed as cell-based, influenza virus A/PR8/34 (H1N1). The following applies: for EC50: Influenza A virus, MDCK.
The subject of data set [10] is TLRs signaling pathway mRNA. The data set is classed as cell-based, canine.
Setting [11] is: 24 and 48 h after administration.

Structures are written as SMILES. ≈ marks a conversion by molar mass, not a printed value. Where “and” joins values, the source holds several entries; their conditions need not be identical. Equal entries are not always repeated. Entries after “also recorded” stand apart in the source; their conditions may differ. Where two headings read alike, the source gives them in different places. A value given as a limit tells only on which side of the number the result lay.

In the data set on MDCK cells (48 h), `CC1(C)[C@@H](O[C@H]2O[C@H](C(=O)O)[C@@H](O)[C@H](O)[C@H]2O[C@@H]2O[C@H](C(=O)O)[C@@H](O)[C@H](O)[C@H]2O)CC[C@]2(C)[C@H]3C(=O)C=C4[C@@H]5C[C@@](C)(C(=O)O)CC[C@]5(C)CC[C@@]4(C)[C@]3(C)CC[C@@H]12` [GA, glycyrrhizic acid] gave a TC0 of 125.00 µg/mL and a TC50 of 663.74 µg/mL (≈ 807 µM). For the same molecule, in the data set with influenza A virus [1], the viability at 3.91 µg/mL came out at 31.1%, the viability at 7.81 µg/mL stood at 32.8%, the viability at 31.25 µg/mL was 43% and the viability at 125 µg/mL was found to be 47.2%. The viability at […] with influenza A virus [1] is 34.4% and 46%. Moreover, in the data set with influenza A virus [2], the “effect on the cell viability after virus infection (in words)” value (“effect on the cell viability” below) is “slightly increase the cell viability rate, but not obviously” and the cell viability rate result is on record as “about 47%”.
In the data set on MDCK cells, `OC/C=C/c1ccccc1` [CAO, cinnamic alcohol] gave a TC0 of 125.00 µg/mL and a TC50 of 390.84 µg/mL (≈ 2910 µM). Further, in the data set with influenza A virus [1], the viability at 3.91 µg/mL amounted to 25%, the viability at 7.81 µg/mL was 25.9%, the viability at 31.25 µg/mL was 26.4% and the viability at 125 µg/mL amounted to 32.6%. Besides, the viability at […] with influenza A virus [1] is 26.7% and 29.9%. In the data set on influenza A virus [2], the “effect on the cell viability” value is “little antiviral effect”.
Consider `CCOC(=O)C1=C[C@@H](OC(CC)CC)[C@H](NC(C)=O)[C@@H](N)C1` [Oseltamivir, reference compound], for which, in data set [3], the “protein expression levels of MyD88 and NF-κB p65 in lung tissue” value is “significantly down-regulated”; the “protein expression levels of TLR4 and TLR7 in lung tissue” value is “Decreased”. Moreover, in the data set with MDCK cells (48 h), the TC0 is 100.00 µg/mL and the TC50 worked out at 500.00 µg/mL (≈ 1600 µM). The viability at 10 µg/mL in the data set on influenza A virus [1] amounted to 82.7%. In data set [4] (Day 3, 22 mg/kg), this molecule returned a spleen index of 0.51 ± 0.13 and a thymus index of 0.45 ± 0.05. In [4] (Day 7, 22 mg/kg), the spleen index is 0.49 ± 0.08 and the thymus index is 0.38 ± 0.03. Moreover, in data set [5] (Day 3, 22 mg/kg by gavage), the “Inhibition ratio of lung index” value was 41.27% and the Lung index is 0.74 ± 0.03. Also, in [5] (Day 7, 22 mg/kg by gavage), the “Inhibition ratio of lung index” value came out at 38.86% and the Lung index is reported as 1.18 ± 0.11. The IL-10 in serum result in data set [6] (P < 0.01) is listed as “accelerated the production of IL-10”. Also, the IL-1β in serum entry in data set [6] (P < 0.01 or P < 0.05) is recorded as “dramatically inhibited the production of IL-1β”. The IL-6 in serum entry in [6] (P > 0.05) is given as “slightly increased”. The “IL-6 level in cell supernatant vs control infected group” value in data set [7] is listed as “significantly higher than that in the control infected group”. Further, in the data set with influenza A virus [8] (setting [11]), the “CPE of infected MDCK cells” value is “significantly reduce the CPE”.
`O=C(O)/C=C/c1ccccc1` [CMA, cinnamic acid]: in the data set on influenza A virus [1], the viability at 1.95 µg/mL came out at 27.7%, the viability at 3.91 µg/mL is 27.9%, the viability at 7.81 µg/mL was 30.9% and the viability at 31.25 µg/mL was found to be 33.5%. For the same molecule, the viability at […] with influenza A virus [1] turned out to be 34.8%. In addition, the “effect on the cell viability” value with influenza A virus [2] is recorded as “little antiviral effect”.
As to `O=C1C[C@@H](c2ccc(O[C@@H]3O[C@H](CO)[C@@H](O)[C@H](O)[C@H]3O)cc2)Oc2cc(O)ccc21` [LIQ, liquiritin], in the data set on MDCK cells (48 h), the TC0 turned out to be 250.00 µg/mL and the TC50 worked out at 680.77 µg/mL (≈ 1630 µM). In the data set with influenza A virus [1], the viability at 7.81 µg/mL was 26.6%, the viability at 31.25 µg/mL was determined as 28.4%, the viability at 125 µg/mL came out at 32.2% and the viability at 250 µg/mL amounted to 33.7%. In addition, in the data set on influenza A virus [1], the viability at […] was 26.9% and 28%. In addition, the “effect on the cell viability” value with influenza A virus [2] was “little antiviral effect”.
In the data set with MDCK cells, `N#C[C@H](O[C@@H]1O[C@H](CO[C@@H]2O[C@H](CO)[C@@H](O)[C@H](O)[C@H]2O)[C@@H](O)[C@H](O)[C@H]1O)c1ccccc1` [AMY, amygdalin] came in with a TC0 of 31.25 µg/mL and a TC50 of 563.64 µg/mL (≈ 1230 µM). In addition, in the data set on influenza A virus [1], the viability at 0.98 µg/mL is 26.2%, the viability at 1.95 µg/mL was 27%, the viability at 3.91 µg/mL is 29% and the viability at 7.81 µg/mL worked out at 27.9%. Besides, in the data set on influenza A virus [1], the viability at 31.25 µg/mL was 28.9% and the viability at […] stood at 28.2%. In the data set on influenza A virus [2], the “effect on the cell viability” value is on record as “little antiviral effect”.
The term EC50 denotes the concentration giving half of the maximal effect. The low end stands for higher potency in that assay, the high end for lower potency in that assay. For `C[C@@H]([C@H](O)c1ccccc1)N(C)C` [LMEP, L-methylephedrin], the “antiviral effective rate (ER)” value in the data set with influenza A virus [9] (31.25 μg/ml (highest concentration), post-treatment host cells after virus infection) was 63.52% and 64.16%. Also, in the data set on influenza A virus [9] (31.25 μg/ml, limited treatment of 1 hour during virus infection), the “antiviral effective rate (ER)” value was 60.58%. In the data set with influenza A virus [9] (31.25 μg/ml, pre-treatment host cells prior to virus infection), the “antiviral effective rate (ER)” value amounted to 56.94%. Besides, the “antiviral effective rate (ER)” value in the data set on influenza A virus [9] (31.25 μg/ml, pre-treatment of virus with drug) worked out at 61.48%. The EC50 in the data set with influenza A virus [9] (drug delivery way: Blocking viruses invading host cells) was determined as 20.4 µg/mL (≈ 114 µM). In the data set with influenza A virus [9] (drug delivery way: Directly inhibiting virus), it took 7.55 µg/mL (≈ 42.1 µM) to reach a half-maximal effect (EC50). The molecule also yielded an EC50 with influenza A virus [9] (drug delivery way: Inhibiting the biosynthesis of virus) of 6.65 µg/mL (≈ 37.1 µM). Also, the concentration giving a half-maximal response (EC50) in the data set on influenza A virus [9] (drug delivery way: Intervening the adsorption of virus) amounted to 7.85 µg/mL (≈ 43.8 µM). Also, the “antiviral effective rate (ER)” value with influenza A virus [9] (final concentration 3.91 μg/ml) is on record as “more than 34.00%”. In the data set with MDCK cells, the TC0 is 31.25 µg/mL, the TC50 was 216.77 µg/mL (≈ 1210 µM) and the “cells' survival rate” value is “higher than 90%”. Moreover, in data set [10], the “mRNA expression levels of TLR7, NF-κB p65, TLR3 and IRF3” value is given as “significantly reduced”; the “mRNA expression of IFN-β” value is “significantly increased”; the “mRNA expression of TLR4” value was “significant decreased”; the “mRNA expression of TLR4, MyD88 and TRAF3” value was “significantly reduced”. For the same molecule, the “mRNA expression of TRAF3” value in data set [10] was “significantly reduced”. In the data set with influenza A virus [1], the viability at 0.98 µg/mL stood at 57.3%, the viability at 1.95 µg/mL stood at 63.2%, the viability at 3.91 µg/mL stood at 66.6% and the viability at 7.81 µg/mL was 70.3%. Moreover, in the data set with influenza A virus [1], the viability at 31.25 µg/mL came out at 77.8% and the viability at […] was found to be 75.1%. In addition, in data set [7], the “IL-6 level in cell supernatant vs control infected group” value is reported as “significantly higher than that in the control infected group”, the “level of IFN-β in cell supernatant vs control infected group” value is recorded as “significantly increase; also recorded: increased” and the “secretion of TNF-α vs control infected group” value is on record as “significantly inhibited the secretion of TNF-α”. For the same molecule, the “CPE of infected MDCK cells” value with influenza A virus [8] (setting [11]) is given as “significantly reduce the CPE”. In the data set on influenza A virus [8] (24 h treatment, P < 0.05), the “virus load vs oseltamivir group” value was “significantly lower than that of oseltamivir group”. Further, the “virus load vs oseltamivir group” value with influenza A virus [8] (48 h treatment) is reported as “no difference”. Further, the “viral load in MDCK cells vs control infected group” value in the data set on influenza A virus [8] (each dose group, 24 and 48 h after administration, P < 0.01 or P < 0.05) is reported as “significantly decreased”. The same molecule came in with a cell viability rate in the data set with influenza A virus [2] not below 70%.
